Reference: US20160243056A1, “Sustained Release Formulations Containing Methylglyoxal and Their Therapeutic Applications” (priority 2013, published 2016)
Read-outs that look alike come from different tables or passages of the source.

Tests used:
Sarcoma-180 cells [1] = conditions: sarcoma-180 cells injected concomitantly with Methylglyoxal; cited from earlier work
peritoneal macrophages [2] = test: Superoxide anion generation (production of reduced NBT) by peritoneal macrophages; format: in vivo, mice; conditions: bare MG 20 mg/kg body weight/day iv
Method: Values in the bracket denote dose at mg/kg body wt/day • Ehrlich ascites carcinoma (EAC) cells developed in the intraperitoneal cavity of mouse were collected in different time intervals. After washing with normal saline the cells were re-suspended in phosphate buffered saline. […] Number of Sarcoma-180 cells inoculated to each mouse was 1×10^6. The tumor bearing mice were treated with modified nano-methylglyoxal (present formulation) in normal saline through intravenous route to study the tumor growth inhibition by nano-methylglyoxal. Treatment started after 7 days of inoculation in mice intravenously with 50 μl nanoMG in solution (containing 5 μg methylglyoxal). Mice in the negative control group were similarly treated intravenously with normal saline and the positive control groups were treated intravenously with bare methylglyoxal (20 mg/kg body weight/day) in normal saline. Each group contained six mice. Each set of experiment was repeated four times. melatonin (0.25 mg/kg body weight/day), creatine (150 mg/kg body weight/day) and Ascorbic acid (50 mg/kg body weight/day) were fed orally to each mouse everyday. Treatment was given with single daily dose for consecutive 12 days. […] Treatment started after 7 days of inoculation in mice intravenously with 50 μl nanoMG in solution (containing 5 μg methylglyoxal). Treatment was continued for 20 doses (six doses per week) in 23 days. […]

Mitochondrial Complex I = conditions: cited from earlier work
sarcoma-180 cells [3] = test: Measurement of tumor volume, Sarcoma-180 tumour in left hind leg of mice; format: in vivo, Swiss albino female mice; conditions: bare methylglyoxal 20 mg/kg body weight/day iv, five days a week
Method: In the present invention, effect of modified nanomethylGlyoxal, against tumor in mice, have been studied. Briefly, Swiss albino female mice aged 4-6 weeks weighing 18-20 g were taken. Each group contained four mice. Tumors were developed in the left hind leg of a mouse by intra-muscular injection of sarcoma-180 cells (approximately 2×10^6 cells in each mouse). Each set of experiment was repeated 4 times. Drug was administered to the mice intravenously, five days a week. Polymer conjugated methylglyoxal (Nano-MG) was administered intravenously at an amount of 0.4 mg/kg body weight/day. One group received bare methylglyoxal (20 mg/kg body weight/day). Drug was administered after 72 hours of inoculation of Sarcoma-180 tumour in the treated group. Treatment was continued for four weeks.

[4] = system: Ehrlich ascites carcinoma (EAC) cells; test: Tumor growth inhibition of EAC cells inoculated intraperitoneally in mice (Trypan Blue cell count); format: in vivo
Method: The Effect of Nano-Methylglyoxal on the Excessive Proliferation of Cancerous Cells in Mice was Investigated as Follows: • a) Mice bearing Ehrlich ascites carcinoma cells (No. of EAC cell inoculated each mouse=1×10^6) were treated intravenously with nano-methylglyoxal in normal saline to observe the effect of cell proliferation. Treatment started after 24 hrs, of inoculation in mice intravenously with three different doses of nanoMG in solution. In first group every day each mouse received 25 μl nanoMG solution (containing 2.5 μg methylglyoxal), in second group each mouse received 50 μl nanoMG solution (containing 5 μg methylglyoxal) and in third group each mouse received 100 μl nanoMG solution (containing 10 μg methylglyoxal). Mice in the negative control group were similarly treated intravenously with normal saline and the positive control groups were treated intravenously with bare methylglyoxal (20 mg/kg body weight/day) in normal saline. Each group contains six mice. Each set of experiment was repeated four times. Melatonin (0.25 mg/kg body weight/day), creatine (150 mg/kg body weight/day) and Ascorbic acid (50 mg/kg body weight/day) were fed orally to each mouse. Treatment was continued for consecutive 8 days (Table-5, Table-6). […]

[5] = system: Glyceraldehyde-3-Phospahte Dehydrogenase; conditions: cited from earlier work
peritoneal macrophages [6] = test: Peritoneal macrophage count in treated mice; format: in vivo; conditions: for Peritoneal macrophage Count (×10^6): bare MG 20 mg/kg body weight/day iv
Method: Values in the bracket denote dose at mg/kg body wt/day • Ehrlich ascites carcinoma (EAC) cells developed in the intraperitoneal cavity of mouse were collected in different time intervals. After washing with normal saline the cells were re-suspended in phosphate buffered saline. […] Number of Sarcoma-180 cells inoculated to each mouse was 1×10^6. The tumor bearing mice were treated with modified nano-methylglyoxal (present formulation) in normal saline through intravenous route to study the tumor growth inhibition by nano-methylglyoxal. Treatment started after 7 days of inoculation in mice intravenously with 50 μl nanoMG in solution (containing 5 μg methylglyoxal). Mice in the negative control group were similarly treated intravenously with normal saline and the positive control groups were treated intravenously with bare methylglyoxal (20 mg/kg body weight/day) in normal saline. Each group contained six mice. Each set of experiment was repeated four times. melatonin (0.25 mg/kg body weight/day), creatine (150 mg/kg body weight/day) and Ascorbic acid (50 mg/kg body weight/day) were fed orally to each mouse everyday. Treatment was given with single daily dose for consecutive 12 days. […] Treatment started after 7 days of inoculation in mice intravenously with 50 μl nanoMG in solution (containing 5 μg methylglyoxal). Treatment was continued for 20 doses (six doses per week) in 23 days. Melatonin (0.25 mg/kg body weight/day), creatine (150 mg/kg body weight/day) and Ascorbic acid (50 mg/kg body weight/day) were fed orally to each mouse. • d) Solid tumor bearing mice treated with nanoMG as described previously were sacrificed for the isolation of macrophages. Briefly, RPMI-1640 was injected in the peritoneal cavity of mouse and peritoneal macrophages were isolated and centrifuged and resuspended in RPMI-1640+10% FBS and used further for immunomodulatory studies. […] In the present invention, effect of modified nanomethylGlyoxal, against tumor in mice, have been studied. Briefly, Swiss albino female mice aged 4-6 weeks weighing 18-20 g were taken. Each group contained four mice. […]

Sarcoma = test: Sarcoma-bearing mice: Creatine content, CK activity and tumor size; format: in vivo
From the text: We also investigated the status of Creatine and CK in a few post-operative tissue samples from human patients, and similar to the results of animal tissues, the Creatine content and CK activity were much reduced in both human Fibrosarcoma and Gastro-Intestinal Tract Malignancy, compared to healthy control tissues.

L1236 = conditions: cited from earlier work
[7] = system: Ehrlich Ascites Carcinoma (EAC) cells; test: Oral Melatonin on EAC cells implanted intra-peritoneally in female mice; format: in vivo; conditions: Melatonin 50 mg/kg body wt.
From the text: With these rationales, Melatonin has been applied to treat cancer in both animal and human in our laboratory and has shown significant improvement over the formulations without Melatonin. […] The effects of oral supplementation of Melatonin on growth of Ehrlich Ascites Carcinoma (EAC) cells implanted intra-peritoneally in female mice were studied in our lab. […] It has strong antioxidant properties and anticancer and onco-static action. Melatonin has potential anticancer activity whether given alone or in association with cancer chemotherapy. […] In this study, 30 patients with untreatable metastatic solid tumors were treated with daily 30 mg oral Melatonin in conjunction with low doses of antitumor cytokines. […] In addition Melatonin may have other biological effects, which could be useful in palliative therapy of Cancer.

## CC(=O)C=O [Bare-methylglyoxal, Methylglyoxal]
Sarcoma-180 cells [1]
  Tumor development: No tumor developed
Peritoneal macrophages [2]; normal mice
  Superoxide anion generation Production of reduced NBT: 243 ± 2.82 µmol
Peritoneal macrophages [2]; sarcoma tumour bearing mice
  Superoxide anion generation Production of reduced NBT: 317.5 ± 10.60 µmol
Mitochondrial Complex I; enzyme of malignant cells
  Enzyme inhibition: inhibits
Mitochondrial Complex I; enzyme of normal cells
  Enzyme inhibition: no inhibitory effect
sarcoma-180 cells [3]; day 12
  Sarcoma-180 + Bare-MG Volume of tumour (c.c.): 1 ± 0.1 c.c.
sarcoma-180 cells [3]; day 16
  Sarcoma-180 + Bare-MG Volume of tumour (c.c.): 1.4 ± 0.05 c.c.
sarcoma-180 cells [3]; day 21
  Sarcoma-180 + Bare-MG Volume of tumour (c.c.): 2 ± 0.15 c.c.
sarcoma-180 cells [3]; day 26
  Sarcoma-180 + Bare-MG Volume of tumour (c.c.): 2 ± 0.17 c.c.
sarcoma-180 cells [3]; day 31
  Sarcoma-180 + Bare-MG Volume of tumour (c.c.): 2.73 ± 0.27 c.c.
[4]; Bare-methylglyoxal 20 mg/kg body weight/day iv, 8 consecutive doses from day 1, in million cells
  No. of cells on day 9: 29 ± 2.9
[5]; enzyme of malignant cells
  Enzyme inhibition: inhibits
[5]; enzyme of normal cells
  Enzyme inhibition: no inhibitory effect
Peritoneal macrophages [6]; bare-MG treated mice (20 mg/kg/day iv)
  Macrophage count increase with respect to untreated tumour bearing batch: two fold in bare-MG treated mice
Peritoneal macrophages [6]; normal mice
  Peritoneal macrophage Count (×10^6): 10.88 ± 1.15 ×10^6
Peritoneal macrophages [6]; sarcoma tumour bearing mice
  Peritoneal macrophage Count (×10^6): 12.91 ± 1.46 ×10^6

## CN(CC(=O)O)C(=N)N [Creatine]
Sarcoma
  Effect of Creatine administration on the effect of Methylglyoxal and Ascorbic Acid: significantly augmented

## NC1=NCCN1CC(=O)O [Cyclocreatine, cyclocreatine]
L1236
  Inhibition of proliferation: nearly entirely

## COc1ccc2[nH]cc(CCNC(C)=O)c2c1 [Melatonin]
[4]; melatonin in combination with ascorbic acid and creatine, with modified NanoMG
  Effect of introducing melatonin on tumor growth inhibition of EAC cells: 2. Efficacy is enhanced further when melatonin is introduced in combination with ascorbic acid and creatine for tumor growth inhibition of EAC cells in mice
[7]
  Survival of the treated mice: increased the survival
  Viability and volume of Ehrlich Ascites Carcinoma cells: reduced the viability and volume
